According to ChEMBL document CHEMBL4507302, “Data for DCP probe TP-020” (2021):

Columns and labels:
[1] = tested on: Tyrosine-protein kinase ABL1 (Homo sapiens), P00519 [Q252H]; conditions: Compound concentration 1000.0 nM
[2] = target: Atypical kinase COQ8B, mitochondrial (Homo sapiens) (UniProt Q96D53); conditions: Compound concentration 1000.0 nM
[3] = target: Cyclin-dependent kinase 3 (Homo sapiens) (UniProt Q00526); conditions: Compound concentration 1000.0 nM
[4] = target: Cyclin-dependent kinase 4 (Homo sapiens) (UniProt P11802); conditions: Compound concentration 1000.0 nM
[5] = target: Dual specificity protein kinase CLK3 (Homo sapiens) (UniProt P49761); conditions: Compound concentration 1000.0 nM
[6] = target: Macrophage colony-stimulating factor 1 receptor (Homo sapiens) (UniProt P07333); conditions: Compound concentration 1000.0 nM
[7] = target: Tyrosine-protein kinase CSK (Homo sapiens) (UniProt P41240); conditions: Compound concentration 1000.0 nM
[8] = target: Casein kinase I isoform alpha-like (Homo sapiens) (UniProt Q8N752); conditions: Compound concentration 1000.0 nM
[9] = tested on: Epidermal growth factor receptor (Homo sapiens), P00533 [G719S]; conditions: Compound concentration 1000.0 nM
[10] = target: Receptor tyrosine-protein kinase erbB-2 (Homo sapiens) (UniProt P04626); conditions: Compound concentration 1000.0 nM
[11] = target: Serine/threonine-protein kinase/endoribonuclease IRE1 (Homo sapiens) (UniProt O75460); conditions: Compound concentration 1000.0 nM
Chain of Serine/threonine-protein kinase/endoribonuclease IRE1 (Homo sapiens) (O75460 19-977 limits assumed): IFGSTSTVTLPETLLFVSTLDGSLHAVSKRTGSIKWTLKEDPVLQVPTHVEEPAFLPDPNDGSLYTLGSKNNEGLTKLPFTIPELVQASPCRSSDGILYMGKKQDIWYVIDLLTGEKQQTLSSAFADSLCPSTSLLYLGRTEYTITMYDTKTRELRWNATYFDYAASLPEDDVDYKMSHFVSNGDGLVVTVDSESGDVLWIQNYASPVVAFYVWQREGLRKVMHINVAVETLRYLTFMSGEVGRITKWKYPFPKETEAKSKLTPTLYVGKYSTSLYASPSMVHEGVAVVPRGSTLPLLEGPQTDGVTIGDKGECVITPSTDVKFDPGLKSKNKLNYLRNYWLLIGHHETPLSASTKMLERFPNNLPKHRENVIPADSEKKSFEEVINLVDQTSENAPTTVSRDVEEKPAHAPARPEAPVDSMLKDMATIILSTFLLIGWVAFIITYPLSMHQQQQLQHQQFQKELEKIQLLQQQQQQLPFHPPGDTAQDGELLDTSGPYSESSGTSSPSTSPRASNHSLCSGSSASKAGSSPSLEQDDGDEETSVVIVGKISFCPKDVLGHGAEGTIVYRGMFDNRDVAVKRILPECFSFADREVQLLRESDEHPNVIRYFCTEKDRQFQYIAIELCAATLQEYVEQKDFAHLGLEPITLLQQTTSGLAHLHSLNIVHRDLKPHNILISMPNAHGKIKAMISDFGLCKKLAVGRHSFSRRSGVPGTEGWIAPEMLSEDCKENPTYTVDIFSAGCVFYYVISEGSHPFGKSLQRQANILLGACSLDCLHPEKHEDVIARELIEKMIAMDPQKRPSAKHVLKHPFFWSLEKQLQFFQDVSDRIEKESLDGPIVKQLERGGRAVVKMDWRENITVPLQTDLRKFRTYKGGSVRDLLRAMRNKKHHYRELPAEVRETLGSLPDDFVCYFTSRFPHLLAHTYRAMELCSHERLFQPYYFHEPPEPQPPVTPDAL

[12] = tested on: Fibroblast growth factor receptor 3 (Homo sapiens), P22607 [G697C]; conditions: Compound concentration 1000.0 nM
[13] = target: Serine/threonine-protein kinase ICK (Homo sapiens) (UniProt Q9UPZ9); conditions: Compound concentration 1000.0 nM
[14] = target: Insulin receptor-related protein (Homo sapiens) (UniProt P14616); conditions: Compound concentration 1000.0 nM
[15] = target: Mast/stem cell growth factor receptor Kit (Homo sapiens) (UniProt P10721); conditions: Compound concentration 1000.0 nM
[16] = target: Mitogen-activated protein kinase kinase kinase 3 (Homo sapiens) (UniProt Q99759); conditions: Compound concentration 1000.0 nM
[17] = target: Mitogen-activated protein kinase kinase kinase 4 (Homo sapiens) (UniProt Q9Y6R4); conditions: Compound concentration 1000.0 nM
[18] = target: Mitogen-activated protein kinase kinase kinase kinase 3 (Homo sapiens) (UniProt Q8IVH8); conditions: Compound concentration 1000.0 nM
[19] = target: Serine/threonine-protein kinase MRCK beta (Homo sapiens) (UniProt Q9Y5S2); conditions: Compound concentration 1000.0 nM
Chain of Serine/threonine-protein kinase MRCK beta (Homo sapiens) (Q9Y5S2 whole entry): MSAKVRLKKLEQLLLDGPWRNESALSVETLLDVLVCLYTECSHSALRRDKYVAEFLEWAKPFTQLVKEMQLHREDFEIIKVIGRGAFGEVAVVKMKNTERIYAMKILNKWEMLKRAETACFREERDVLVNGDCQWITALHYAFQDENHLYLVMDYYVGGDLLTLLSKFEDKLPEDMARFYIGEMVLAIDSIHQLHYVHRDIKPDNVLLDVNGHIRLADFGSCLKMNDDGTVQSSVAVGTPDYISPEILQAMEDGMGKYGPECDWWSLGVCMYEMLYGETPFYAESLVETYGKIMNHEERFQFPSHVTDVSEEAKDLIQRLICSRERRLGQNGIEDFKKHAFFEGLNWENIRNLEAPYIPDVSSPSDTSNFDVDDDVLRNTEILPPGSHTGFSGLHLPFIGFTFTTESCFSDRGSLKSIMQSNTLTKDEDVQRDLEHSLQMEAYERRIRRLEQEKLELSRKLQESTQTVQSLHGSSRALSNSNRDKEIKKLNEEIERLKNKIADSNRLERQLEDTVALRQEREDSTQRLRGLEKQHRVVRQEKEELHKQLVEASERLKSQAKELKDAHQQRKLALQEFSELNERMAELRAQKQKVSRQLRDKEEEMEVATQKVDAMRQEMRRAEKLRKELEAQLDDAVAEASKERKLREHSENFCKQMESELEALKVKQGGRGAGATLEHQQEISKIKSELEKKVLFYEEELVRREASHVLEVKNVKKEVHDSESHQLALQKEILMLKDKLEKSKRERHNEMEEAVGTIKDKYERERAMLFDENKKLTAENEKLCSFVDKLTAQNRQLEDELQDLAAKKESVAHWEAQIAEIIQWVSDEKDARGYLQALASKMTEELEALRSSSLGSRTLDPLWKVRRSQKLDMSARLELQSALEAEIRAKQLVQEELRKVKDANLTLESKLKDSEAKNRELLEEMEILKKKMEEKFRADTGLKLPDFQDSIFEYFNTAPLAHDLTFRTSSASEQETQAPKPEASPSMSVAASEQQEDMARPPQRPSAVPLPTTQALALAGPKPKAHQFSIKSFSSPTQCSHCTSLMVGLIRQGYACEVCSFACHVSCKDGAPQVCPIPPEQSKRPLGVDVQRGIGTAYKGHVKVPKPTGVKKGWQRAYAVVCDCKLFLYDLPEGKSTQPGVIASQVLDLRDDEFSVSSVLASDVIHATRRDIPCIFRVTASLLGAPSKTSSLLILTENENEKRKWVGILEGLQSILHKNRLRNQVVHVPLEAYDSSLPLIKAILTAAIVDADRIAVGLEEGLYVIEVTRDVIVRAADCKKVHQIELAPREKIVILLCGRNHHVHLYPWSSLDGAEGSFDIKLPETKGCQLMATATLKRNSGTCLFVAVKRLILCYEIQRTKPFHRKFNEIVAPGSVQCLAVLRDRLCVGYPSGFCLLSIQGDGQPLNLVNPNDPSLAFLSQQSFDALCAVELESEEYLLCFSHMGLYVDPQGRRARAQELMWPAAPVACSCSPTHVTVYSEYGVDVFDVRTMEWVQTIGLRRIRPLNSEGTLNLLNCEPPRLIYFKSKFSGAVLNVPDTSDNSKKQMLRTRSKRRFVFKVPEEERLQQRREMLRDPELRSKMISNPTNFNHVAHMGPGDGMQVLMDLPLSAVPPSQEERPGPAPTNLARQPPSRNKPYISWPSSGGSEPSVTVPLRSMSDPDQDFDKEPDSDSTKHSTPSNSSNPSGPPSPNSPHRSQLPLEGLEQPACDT

[20] = target: Serine/threonine-protein kinase Nek10 (Homo sapiens) (UniProt Q6ZWH5); conditions: Compound concentration 1000.0 nM
[21] = target: Serine/threonine-protein kinase Nek9 (Homo sapiens) (UniProt Q8TD19); conditions: Compound concentration 1000.0 nM
[22] = target: Serine/threonine-protein kinase PAK 1 (Homo sapiens) (UniProt Q13153); conditions: Compound concentration 1000.0 nM
[23] = target: Cyclin-dependent kinase 16 (Homo sapiens) (UniProt Q00536); conditions: Compound concentration 1000.0 nM
[24] = target: Platelet-derived growth factor receptor alpha (Homo sapiens) (UniProt P16234); conditions: Compound concentration 1000.0 nM
[25] = target: Cyclin-dependent kinase 15 (Homo sapiens) (UniProt Q96Q40); conditions: Compound concentration 1000.0 nM
[26] = target: Phosphatidylinositol 4,5-bisphosphate 3-kinase catalytic subunit alpha isoform (Homo sapiens) (UniProt P42336); conditions: Compound concentration 1000.0 nM
[27] = target: Serine/threonine-protein kinase pim-1 (Homo sapiens) (UniProt P11309); conditions: Compound concentration 1000.0 nM
[28] = tested on: Proto-oncogene tyrosine-protein kinase receptor Ret (Homo sapiens), P07949 [V804L]; conditions: Compound concentration 1000.0 nM
[29] = target: Receptor-interacting serine/threonine-protein kinase 2 (Homo sapiens) (UniProt O43353); conditions: Compound concentration 1000.0 nM
[30] = target: Ribosomal protein S6 kinase alpha-3 (Homo sapiens) (UniProt P51812); conditions: Compound concentration 1000.0 nM
[31] = target: Ribosomal protein S6 kinase alpha-6 (Homo sapiens) (UniProt Q9UK32); conditions: Compound concentration 1000.0 nM
Chain of Ribosomal protein S6 kinase alpha-6 (Homo sapiens) (Q9UK32 whole entry): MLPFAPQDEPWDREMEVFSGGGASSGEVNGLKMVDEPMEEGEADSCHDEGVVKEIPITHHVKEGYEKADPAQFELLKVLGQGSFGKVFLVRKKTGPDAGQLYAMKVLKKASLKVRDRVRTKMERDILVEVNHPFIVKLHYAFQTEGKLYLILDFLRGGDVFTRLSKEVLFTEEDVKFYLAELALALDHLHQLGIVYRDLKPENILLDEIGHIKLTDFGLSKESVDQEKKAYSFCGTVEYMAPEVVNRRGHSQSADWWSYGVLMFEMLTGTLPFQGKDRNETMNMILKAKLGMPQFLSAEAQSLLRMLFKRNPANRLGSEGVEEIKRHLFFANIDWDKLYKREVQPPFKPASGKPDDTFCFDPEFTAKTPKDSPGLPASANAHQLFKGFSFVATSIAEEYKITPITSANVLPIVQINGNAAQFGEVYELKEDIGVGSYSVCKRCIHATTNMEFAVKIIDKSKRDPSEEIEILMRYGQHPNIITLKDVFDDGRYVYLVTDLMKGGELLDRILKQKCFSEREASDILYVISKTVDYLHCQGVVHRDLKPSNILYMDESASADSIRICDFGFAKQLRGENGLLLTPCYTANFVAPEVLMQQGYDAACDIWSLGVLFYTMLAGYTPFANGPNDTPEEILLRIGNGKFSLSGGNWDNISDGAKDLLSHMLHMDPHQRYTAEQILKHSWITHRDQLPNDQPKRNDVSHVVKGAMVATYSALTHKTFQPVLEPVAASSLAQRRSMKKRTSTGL

[32] = target: Serine/threonine-protein kinase SIK1 (Homo sapiens) (UniProt P57059); conditions: Compound concentration 1000.0 nM
Chain of Serine/threonine-protein kinase SIK1 (Homo sapiens) (P57059 whole entry): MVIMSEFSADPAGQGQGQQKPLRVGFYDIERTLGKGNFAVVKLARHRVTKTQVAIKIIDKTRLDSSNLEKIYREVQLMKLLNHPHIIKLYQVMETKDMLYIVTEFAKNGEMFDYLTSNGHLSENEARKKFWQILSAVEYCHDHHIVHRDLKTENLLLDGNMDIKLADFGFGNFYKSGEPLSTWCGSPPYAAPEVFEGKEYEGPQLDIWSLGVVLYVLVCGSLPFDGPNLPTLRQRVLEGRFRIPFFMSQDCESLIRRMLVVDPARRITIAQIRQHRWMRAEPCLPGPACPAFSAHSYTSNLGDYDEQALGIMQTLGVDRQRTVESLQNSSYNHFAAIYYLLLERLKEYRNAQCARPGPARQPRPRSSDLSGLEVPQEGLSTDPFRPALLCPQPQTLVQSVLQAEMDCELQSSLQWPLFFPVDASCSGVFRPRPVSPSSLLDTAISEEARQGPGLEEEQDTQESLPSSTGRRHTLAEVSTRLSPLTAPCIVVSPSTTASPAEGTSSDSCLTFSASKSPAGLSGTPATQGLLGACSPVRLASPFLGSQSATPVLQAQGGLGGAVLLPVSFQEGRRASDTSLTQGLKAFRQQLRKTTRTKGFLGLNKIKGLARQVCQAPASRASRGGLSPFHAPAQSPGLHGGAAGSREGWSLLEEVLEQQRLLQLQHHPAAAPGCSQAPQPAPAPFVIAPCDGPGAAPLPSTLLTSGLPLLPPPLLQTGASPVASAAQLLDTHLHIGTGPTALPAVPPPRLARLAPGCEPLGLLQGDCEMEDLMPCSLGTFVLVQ

[33] = target: Serine/threonine-protein kinase SIK2 (Homo sapiens) (UniProt Q9H0K1); conditions: Compound concentration 1000.0 nM
[34] = target: NUAK family SNF1-like kinase 2 (Homo sapiens) (UniProt Q9H093); conditions: Compound concentration 1000.0 nM
Chain of NUAK family SNF1-like kinase 2 (Homo sapiens) (Q9H093 whole entry): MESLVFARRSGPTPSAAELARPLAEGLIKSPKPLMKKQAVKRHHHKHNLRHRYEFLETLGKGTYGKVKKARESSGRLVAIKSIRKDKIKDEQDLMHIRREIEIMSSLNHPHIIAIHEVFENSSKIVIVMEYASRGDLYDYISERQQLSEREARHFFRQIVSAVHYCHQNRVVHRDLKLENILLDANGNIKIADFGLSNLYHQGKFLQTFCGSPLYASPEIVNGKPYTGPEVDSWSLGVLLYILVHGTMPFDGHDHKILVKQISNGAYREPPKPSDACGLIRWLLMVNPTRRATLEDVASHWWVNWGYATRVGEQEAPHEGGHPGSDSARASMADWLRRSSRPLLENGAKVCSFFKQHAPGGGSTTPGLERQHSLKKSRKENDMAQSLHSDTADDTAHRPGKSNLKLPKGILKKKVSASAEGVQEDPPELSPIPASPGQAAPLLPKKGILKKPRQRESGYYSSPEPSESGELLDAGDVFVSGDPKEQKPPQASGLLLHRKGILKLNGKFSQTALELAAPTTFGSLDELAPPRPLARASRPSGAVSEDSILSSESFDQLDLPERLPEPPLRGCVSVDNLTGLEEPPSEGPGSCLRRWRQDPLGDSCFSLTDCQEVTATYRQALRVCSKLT

[35] = target: Tyrosine-protein kinase Srms (Homo sapiens) (UniProt Q9H3Y6); conditions: Compound concentration 1000.0 nM
[36] = target: SRSF protein kinase 3 (Homo sapiens) (UniProt Q9UPE1); conditions: Compound concentration 1000.0 nM
[37] = target: Mitogen-activated protein kinase kinase kinase 7 (Homo sapiens) (UniProt O43318); conditions: Compound concentration 1000.0 nM
[38] = target: Serine/threonine-protein kinase TAO2 (Homo sapiens) (UniProt Q9UL54); conditions: Compound concentration 1000.0 nM
[39] = target: TGF-beta receptor type-1 (Homo sapiens) (UniProt P36897); conditions: Compound concentration 1000.0 nM
[40] = target: Serine/threonine-protein kinase tousled-like 1 (Homo sapiens) (UniProt Q9UKI8); conditions: Compound concentration 1000.0 nM
[41] = target: High affinity nerve growth factor receptor (Homo sapiens) (UniProt P04629); conditions: Compound concentration 1000.0 nM
[42] = target: 5-hydroxytryptamine receptor 1B (Homo sapiens) (UniProt P28222); conditions: Compound concentration 10.0 uM
[43] = target: Histamine H3 receptor (Homo sapiens) (UniProt Q9Y5N1); conditions: Compound concentration 10.0 uM
[44] = target: Alpha-2B adrenergic receptor (Homo sapiens) (UniProt P18089); conditions: Compound concentration 10.0 uM
Rattus norvegicus = species: Rattus norvegicus; conditions: Compound concentration 10.0 uM
[45] = target: Alpha-1D adrenergic receptor (Homo sapiens) (UniProt P25100); conditions: Compound concentration 10.0 uM

Nc1cnc(N2CCc3cc(S(=O)(=O)Nc4c(F)cc(Cl)cc4F)cc(N4CCCC4=O)c32)nc1
inactive: residual activity [1] 100% | residual activity [2] 100% | residual activity [3] 100% | residual activity [4] 97% | residual activity [5] 74% | residual activity [6] 100% | residual activity [7] 99% | residual activity [8] 100% | residual activity [9] 75% | residual activity [10] 100% | residual activity [11] 100% | residual activity [12] 89% | residual activity [13] 80% | residual activity [14] 100% | residual activity [15] 100% | residual activity [16] 97% | residual activity [17] 85% | residual activity [18] 93% | residual activity [19] 95% | residual activity [20] 100% | residual activity [21] 98% | residual activity [22] 89% | residual activity [23] 98% | residual activity [24] 89% | residual activity [25] 80% | residual activity [26] 76% | residual activity [27] 88% | residual activity [28] 99% | residual activity [29] 53% | residual activity [30] 84% | residual activity [31] 100% | residual activity [32] 100% | residual activity [33] 100% | residual activity [34] 100% | residual activity [35] 88% | residual activity [36] 100% | residual activity [37] 100% | residual activity [38] 78% | residual activity [39] 100% | residual activity [40] 100% | residual activity [41] 100% | inhibition [42] -3.82% | inhibition [43] -1.21% | inhibition [44] 0.99% | inhibition (Rattus norvegicus) -2.65% | inhibition [45] -2.31%

Cn1nc(C(F)(F)F)cc1-c1cnc(N2CCc3cc(S(=O)(=O)Nc4c(F)cc(Cl)cc4F)cc(N4CCCC4=O)c32)nc1 [TP-020]
inactive: residual activity [1] 85% | residual activity [2] 100% | residual activity [3] 91% | residual activity [4] 81% | residual activity [5] 88% | residual activity [6] 91% | residual activity [7] 93% | residual activity [8] 100% | residual activity [9] 100% | residual activity [10] 79% | residual activity [11] 92% | residual activity [12] 100% | residual activity [13] 84% | residual activity [14] 90% | residual activity [15] 91% | residual activity [16] 89% | residual activity [17] 100% | residual activity [18] 84% | residual activity [19] 94% | residual activity [20] 80% | residual activity [21] 100% | residual activity [22] 100% | residual activity [23] 77% | residual activity [24] 88% | residual activity [25] 100% | residual activity [26] 100% | residual activity [27] 97% | residual activity [28] 100% | residual activity [29] 82% | residual activity [30] 100% | residual activity [31] 84% | residual activity [32] 100% | residual activity [33] 100% | residual activity [34] 89% | residual activity [35] 100% | residual activity [36] 100% | residual activity [37] 79% | residual activity [38] 100% | residual activity [39] 100% | residual activity [40] 78% | residual activity [41] 69% | inhibition [42] 9.13% | inhibition [43] 0.43% | inhibition [44] 18.5% | inhibition (Rattus norvegicus) -9.93% | inhibition [45] -4.04%
